Test results published in ChEMBL document CHEMBL1201862, “PubChem BioAssay data set” (2004).
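A five-concentration, 48-hour dose response in 96-well plates underlies each endpoint, interpolated linearly between surrounding concentrations. GI50 marks 50% less growth.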 The source made the active and inactive calls. No stated cut-off is given here; in the data, active = GI50 up to about 1.1 µM and inactive = higher.

What was measured:
Test in all cases: NCI anticancer screen, dose series, 48 h
786-0 = test system: 786-0
A498 = test system: A498
A549 = test system: A549
ACHN = test system: ACHN
CAKI-1 = test system: CAKI-1
CCRF-CEM = test system: CCRF-CEM
COLO 205 = test system: COLO 205
DLD-1 = test system: DLD-1
DMS-114 = test system: DMS-114
DMS-273 = test system: DMS-273
EKVX = test system: EKVX
HCC 2998 = test system: HCC 2998
HCT-15 = test system: HCT-15
HL-60 = test system: HL-60
HOP-62 = test system: HOP-62
HOP-92 = test system: HOP-92
HT-29 = test system: HT-29
IGROV-1 = test system: IGROV-1
K562 = test system: K562
KM-20L2 = test system: KM-20L2
KM12 = test system: KM12
LOX IMVI = test system: LOX IMVI
LXFL 529 = test system: LXFL 529
M14 = test system: M14
M19-MEL = test system: M19-MEL
Malme-3M = test system: Malme-3M
NCI-H226 = test system: NCI-H226
NCI-H23 = test system: NCI-H23
NCI-H460 = test system: NCI-H460
NCI-H522 = test system: NCI-H522
OVCAR-3 = test system: OVCAR-3
OVCAR-4 = test system: OVCAR-4
OVCAR-5 = test system: OVCAR-5
OVCAR-8 = test system: OVCAR-8
RPMI-8226 = test system: RPMI-8226
RXF 393 = test system: RXF 393
SF-268 = test system: SF-268
SF-295 = test system: SF-295
SK-MEL-28 = test system: SK-MEL-28
SK-MEL-2 = test system: SK-MEL-2
SK-MEL-5 = test system: SK-MEL-5
SK-OV-3 = test system: SK-OV-3
SN12C = test system: SN12C
SNB-19 = test system: SNB-19
SNB-75 = test system: SNB-75
SW-620 = test system: SW-620
TK-10 = test system: TK-10
U-251 = test system: U-251
UACC-257 = test system: UACC-257
UACC-62 = test system: UACC-62
UO-31 = test system: UO-31
XF498 = test system: XF498
BT-549 = test system: BT-549
DU-145 = test system: DU-145
HCT-116 = test system: HCT-116
HOP-18 = test system: HOP-18
Hs-578T = test system: Hs-578T
MCF7 = test system: MCF7
MDA-MB-231 = test system: MDA-MB-231
MDA-MB-435 = test system: MDA-MB-435
MDA-N = test system: MDA-N
MOLT-4 = test system: MOLT-4
NCI/ADR-RES = test system: NCI/ADR-RES
PC-3 = test system: PC-3
SF-539 = test system: SF-539
SNB-78 = test system: SNB-78
SR = test system: SR
T47D = test system: T47D

`O=C1CCC2(CC1)SCCCS2` was tested, and the GI50 (786-0) was > 100 µM (inactive), the GI50 (A498) was > 100 µM (inactive) and the GI50 (A549) was > 100 µM (inactive). For the same compound, the GI50 (ACHN) was 40 µM (inactive), the GI50 (CAKI-1) was > 100 µM (inactive) and the GI50 (CCRF-CEM) was > 100 µM (inactive). The GI50 (COLO 205) was > 100 µM (inactive), the GI50 (DLD-1) was > 100 µM (inactive) and the GI50 (DMS-114) was > 100 µM (inactive). The GI50 (DMS-273) was > 100 µM (inactive), the GI50 (EKVX) was > 100 µM (inactive) and the GI50 (HCC 2998) was > 100 µM (inactive). The GI50 (HCT-15) was over 100 µM, the GI50 (HL-60) was > 100 µM (inactive) and the GI50 (HOP-62) was > 100 µM (inactive). The GI50 (HOP-92) was > 100 µM (inactive), the GI50 (HT-29) was > 100 µM (inactive) and the GI50 (IGROV-1) was > 100 µM (inactive). The GI50 (K562) was > 100 µM (inactive), the GI50 (KM-20L2) was > 100 µM (inactive) and the GI50 (KM12) was > 100 µM (inactive). For the same compound, the GI50 (LOX IMVI) was > 100 µM (inactive), the GI50 (LXFL 529) was > 100 µM (inactive) and the GI50 (M14) was > 100 µM (inactive). For the same compound, the GI50 (M19-MEL) was > 100 µM (inactive), the GI50 (Malme-3M) was > 100 µM (inactive) and the GI50 (NCI-H226) was > 100 µM (inactive). The GI50 (NCI-H23) was > 100 µM (inactive), the GI50 (NCI-H460) was > 100 µM (inactive) and the GI50 (NCI-H522) was > 100 µM (inactive). The GI50 (OVCAR-3) was > 100 µM (inactive), the GI50 (OVCAR-4) was > 100 µM (inactive) and the GI50 (OVCAR-5) was > 100 µM (inactive). For the same compound, the GI50 (OVCAR-8) was > 100 µM (inactive), the GI50 (RPMI-8226) was > 100 µM (inactive) and the GI50 (RXF 393) was > 100 µM (inactive). The GI50 (SF-268) was > 100 µM (inactive), the GI50 (SF-295) was > 100 µM (inactive) and the GI50 (SK-MEL-28) was > 100 µM (inactive). For the same compound, the GI50 (SK-MEL-2) was > 100 µM (inactive), the GI50 (SK-MEL-5) was > 100 µM (inactive) and the GI50 (SK-OV-3) was > 100 µM (inactive). For the same compound, the GI50 (SN12C) was > 100 µM (inactive), the GI50 (SNB-19) was > 100 µM (inactive) and the GI50 (SNB-75) was 61.1 µM (inactive). The GI50 (SW-620) was > 100 µM (inactive), the GI50 (TK-10) was > 100 µM (inactive) and the GI50 (U-251) was > 100 µM (inactive). The GI50 (UACC-257) was > 100 µM (inactive), the GI50 (UACC-62) was > 100 µM (inactive) and the GI50 (UO-31) was > 100 µM (inactive). For the same compound, the GI50 (XF498) was > 100 µM (inactive).

In the case of `Nc1nc(N)c2cc(CNc3ccc(C(=O)NC(CC(=O)O)C(=O)O)c(Cl)c3)ccc2n1` (configuration not stated), the GI50 (786-0) is reported as 0.0736 µM (active), the GI50 (A498) is reported as 0.171 µM (active) and the GI50 (A549) is reported as 0.0346 µM (active). For the same compound, the GI50 (ACHN) was 0.0253 µM (active), the GI50 (BT-549) was 25.8 µM (inactive) and the GI50 (CAKI-1) was 0.0877 µM (active). For the same compound, the GI50 (CCRF-CEM) was 0.0342 µM (active), the GI50 (COLO 205) was 0.861 µM (active) and the GI50 (DLD-1) was 0.038 µM (active). The GI50 (DMS-114) was < 0.01 µM (active), the GI50 (DMS-273) was 0.0552 µM (active) and the GI50 (DU-145) was 0.0501 µM (active). The GI50 (HCC 2998) was 1.43 µM (inactive), the GI50 (HCT-116) was < 0.01 µM (active) and the GI50 (HCT-15) was 0.0203 µM. The GI50 (HL-60) was 14.3 µM (inactive), the GI50 (HOP-18) was > 100 µM (inactive) and the GI50 (HOP-92) was > 87.5 µM (inactive). The GI50 (HT-29) was < 0.0143 µM (active), the GI50 (Hs-578T) was 357 µM (inactive) and the GI50 (IGROV-1) was 0.112 µM (active). The GI50 (K562) was < 0.0192 µM (active), the GI50 (KM-20L2) was 0.117 µM (active) and the GI50 (KM12) was 0.0796 µM (active). For the same compound, the GI50 (LOX IMVI) was < 0.01 µM (active), the GI50 (M14) was 0.0743 µM (active) and the GI50 (M19-MEL) was 0.596 µM (active). For the same compound, the GI50 (MCF7) was 0.0507 µM (active), the GI50 (MDA-MB-231) was 337 µM (inactive) and the GI50 (MDA-MB-435) was < 0.01 µM (active). For the same compound, the GI50 (MDA-N) was < 0.01 µM (active), the GI50 (MOLT-4) was 0.0175 µM (active) and the GI50 (Malme-3M) was 0.383 µM (active). For the same compound, the GI50 (NCI-H226) was > 21.6 µM (inactive), the GI50 (NCI-H23) was 0.117 µM (active) and the GI50 (NCI-H460) was 0.0256 µM (active). The GI50 (NCI-H522) was 0.502 µM (active), the GI50 (NCI/ADR-RES) was < 0.0282 µM (active) and the GI50 (OVCAR-3) was 0.8 µM (active). For the same compound, the GI50 (OVCAR-4) was 153 µM (inactive), the GI50 (OVCAR-5) was 0.191 µM (active) and the GI50 (OVCAR-8) was 0.032 µM (active). The GI50 (PC-3) was 10.1 µM (inactive), the GI50 (RXF 393) was 61 µM (inactive) and the GI50 (SF-268) was 0.0582 µM (active). For the same compound, the GI50 (SF-295) was 0.0698 µM (active), the GI50 (SF-539) was 0.313 µM (active) and the GI50 (SK-MEL-28) was 0.288 µM (active). The GI50 (SK-MEL-2) was 15 µM (inactive), the GI50 (SK-MEL-5) was 0.162 µM (active) and the GI50 (SK-OV-3) was 6.82 µM (inactive). The GI50 (SN12C) was 0.278 µM (active), the GI50 (SNB-19) was 0.248 µM (active) and the GI50 (SNB-75) was > 20.8 µM (inactive). The GI50 (SNB-78) was 56 µM (inactive), the GI50 (SR) was 0.05 µM (active) and the GI50 (SW-620) was < 0.0103 µM (active). For the same compound, the GI50 (T47D) was 0.524 µM (active), the GI50 (TK-10) was 0.0803 µM (active) and the GI50 (U-251) was 0.0556 µM (active). For the same compound, the GI50 (UACC-257) was 0.259 µM (active), the GI50 (UACC-62) was 0.0893 µM (active) and the GI50 (UO-31) was 0.918 µM (active).

With `NNC(=O)C(=O)N/N=C1\CCC(=O)CC1C(=O)CCC(=O)Nc1ccc(Cl)cc1` (configuration not stated) the GI50 (786-0) was > 100 µM (inactive), the GI50 (A498) was > 100 µM (inactive) and the GI50 (A549) was > 100 µM (inactive). The GI50 (ACHN) was > 100 µM (inactive), the GI50 (CAKI-1) was > 100 µM (inactive) and the GI50 (CCRF-CEM) was > 100 µM (inactive). For the same compound, the GI50 (COLO 205) was > 100 µM (inactive), the GI50 (DLD-1) was > 100 µM (inactive) and the GI50 (DMS-273) was > 100 µM (inactive). The GI50 (EKVX) was > 100 µM (inactive), the GI50 (HCC 2998) was > 100 µM (inactive) and the GI50 (HCT-116) was > 100 µM (inactive). The GI50 (HCT-15) was 94.8 µM, the GI50 (HL-60) was > 100 µM (inactive) and the GI50 (HOP-18) was 95.5 µM (inactive). For the same compound, the GI50 (HT-29) was > 100 µM (inactive), the GI50 (IGROV-1) was > 100 µM (inactive) and the GI50 (K562) was > 100 µM (inactive). The GI50 (KM-20L2) was > 100 µM (inactive), the GI50 (KM12) was 64 µM (inactive) and the GI50 (LOX IMVI) was > 100 µM (inactive). The GI50 (LXFL 529) was > 100 µM (inactive), the GI50 (M14) was > 100 µM (inactive) and the GI50 (M19-MEL) was > 100 µM (inactive). The GI50 (MOLT-4) was > 100 µM (inactive), the GI50 (Malme-3M) was > 100 µM (inactive) and the GI50 (NCI-H226) was > 100 µM (inactive). The GI50 (NCI-H23) was > 100 µM (inactive), the GI50 (NCI-H460) was > 100 µM (inactive) and the GI50 (OVCAR-3) was 95.3 µM (inactive). The GI50 (OVCAR-4) was > 100 µM (inactive), the GI50 (OVCAR-5) was > 100 µM (inactive) and the GI50 (OVCAR-8) was > 100 µM (inactive). For the same compound, the GI50 (RPMI-8226) was > 100 µM (inactive), the GI50 (RXF 393) was 72.4 µM (inactive) and the GI50 (SF-268) was > 100 µM (inactive). The GI50 (SF-295) was > 100 µM (inactive), the GI50 (SF-539) was > 100 µM (inactive) and the GI50 (SK-MEL-28) was > 100 µM (inactive). For the same compound, the GI50 (SK-MEL-2) was > 100 µM (inactive), the GI50 (SK-MEL-5) was > 100 µM (inactive) and the GI50 (SK-OV-3) was > 100 µM (inactive). For the same compound, the GI50 (SN12C) was > 100 µM (inactive), the GI50 (SNB-19) was > 100 µM (inactive) and the GI50 (SNB-75) was 39.4 µM (inactive). The GI50 (SNB-78) was > 100 µM (inactive), the GI50 (SW-620) was > 100 µM (inactive) and the GI50 (TK-10) was > 100 µM (inactive). For the same compound, the GI50 (U-251) was > 100 µM (inactive), the GI50 (UACC-257) was > 100 µM (inactive) and the GI50 (UACC-62) was > 100 µM (inactive). For the same compound, the GI50 (UO-31) was > 100 µM (inactive).
